Reference: paper PMC4061505 (Anesthesiology, 2014)
Several values for one entry are separate records, joined by “and”; a condition that tells them apart may be missing. Equal entries are not always repeated. Where two headings read alike, the source gives them in different places.

Legend:
mTOR pathway = experiment: pmTOR, pAkt, pERK, p4E-BP1 and pp70S6K levels in PC-12 cells; format: cell-based, rat
[1] = test system: mTOR and related proteins; experiment: Western blot of phosphorylated mTOR and related proteins in rat brain; settings: 20 mg·kg^−1 intravenous; for Increase in phosphorylation of mTOR and its downstream targets: rat pre-frontal cortex, 60-min post-administration, p<0.05
α7-nAChR [2] = settings: cited from earlier work
NMDAR = settings: cited from earlier work
α3β4-nAChR = settings: cited from earlier work; for IC50: α3β4-nAChR
[3] = test system: monomeric serine racemase (m-SR); experiment: Expression of monomeric serine racemase protein in PC-12 cells; format: cell-based, rat; settings: for Concentration of maximum increase in m-SR protein expression: gradual decline at higher concentrations
[4] = test system: mTOR and related proteins; settings: cited from earlier work
anesthesia = settings: cited from earlier work
[5] = test system: (S)-nicotine-induced currents in PC-12 cells; settings: cited from earlier work
[6] = Brain tissue concentrations after administration to male Wistar rats
α7-nAChR [7] = settings: cited from earlier work; remark: listed apart in the source
[8] = test system: monomeric serine racemase (m-SR); settings: PC-12 cells; compound alone; cited from earlier work
[9] = time-dependent, significant in the 20- and 60-min samples
[10] = after (R,S)-ketamine 40 mg·kg^−1 intraperitoneal, 10 min
[11] = after (R,S)-ketamine 40 mg·kg^−1 intraperitoneal, 30 min
[12] = after (R,S)-ketamine 40 mg·kg^−1 intraperitoneal, 60 min
[13] = after (R,S)-ketamine 40 mg·kg^−1 intraperitoneal, 240 min
[14] = after (R,S)-norketamine 20 mg·kg^−1 intravenous, 10 min
[15] = after (R,S)-norketamine 20 mg·kg^−1 intravenous, 20 min
[16] = after (R,S)-norketamine 20 mg·kg^−1 intravenous, 60 min
[17] = after (R,S)-norketamine 20 mg·kg^−1 intravenous, 240 min

SMILES: N[C@]1(c2ccccc2Cl)CCC[C@H](O)C1=O
- Levels of phosphorylated mTOR, 4E-BP1, p70S6K, ERK1/2 and Akt and of m-SR protein (mTOR pathway): significant increases
- Concentration above which pmTOR increase was markedly reduced (mTOR pathway; 60 min): greater than 1 nM
- Relative levels of pERK1/2 and pAkt ([1]; increased in the 20- and 60-min samples): did not reach statistical significance
- Increase in p4E-BP1 [1, 9]: ~ 2.0 fold
- Increase in pmTOR [1, 9]: ~ 2.0 fold
- Increase in pp70S6K [1, 9]: ~ 2.5 fold
- Increase in phosphorylation of mTOR and its downstream targets [1]: > 2 fold
- IC50 (α7-nAChR [2]): < 100 nM
- Activity at the NMDAR (NMDAR): not active
- Activity at the α3β4-nAChR (α3β4-nAChR): not active
- IC50 (α3β4-nAChR): > 300 µM
- Increase in expression of serine racemase ([3]; 0.05nM): ~ 2 fold
- Concentration of maximum increase in m-SR protein expression ([3]; 36 h): 0.05 nM

SMILES: CNC1(c2ccccc2Cl)CCCCC1=O (racemic) [(R,S)-ketamine]
- Increase in the phosphorylated forms of mTOR pathway proteins ([4]; Wistar rats, peaked at 30–60 min post-administration): ~ 1.5 fold
- Increase in pERK [4]: 1.5 fold
- Concentration required to produce the maximum effect on the mTOR pathway and m-SR expression (mTOR pathway): 600 nM
- Levels of phosphorylated mTOR, 4E-BP1, p70S6K, ERK1/2 and Akt and of m-SR protein (mTOR pathway): significant increases
- Concentration above which the increase lost significance (mTOR pathway; 60 min): greater than 2000 nM
- Concentrations eliciting significant increases in protein phosphorylation (mTOR pathway; 60 min): 400 to 600 nM
- Anesthetic activity (anesthesia; rat): produce anesthesia
- IC50 [5]: 5 µM
- Rat brain tissue conc. of (2S,6S;2R,6R)-HNK [6, 10]: 30 ± 5 µM/g
- Rat brain tissue conc. of (R,S)-Ket [6, 10]: 137 ± 6 µM/g
- Rat brain tissue conc. of (R,S)-norKet [6, 10]: 21 ± 8 µM/g
- Rat brain tissue conc. of (2S,6S;2R,6R)-HNK [6, 11]: 21 ± 8 µM/g
- Rat brain tissue conc. of (R,S)-Ket [6, 11]: 52 ± 44 µM/g
- Rat brain tissue conc. of (R,S)-norKet [6, 11]: 34 ± 6 µM/g
- Rat brain tissue conc. of (2S,6S;2R,6R)-HNK [6, 12]: 25 ± 5 µM/g
- Rat brain tissue conc. of (R,S)-Ket [6, 12]: 19 ± 9 µM/g
- Rat brain tissue conc. of (R,S)-norKet [6, 12]: 16 ± 4 µM/g
- Rat brain tissue conc. of (2S,6S;2R,6R)-HNK [6, 13]: 11 ± 5 µM/g
- Rat brain tissue conc. of (R,S)-Ket [6, 13]: 0.6 ± 0.1 µM/g
- Rat brain tissue conc. of (R,S)-norKet [6, 13]: 1.3 ± 0.3 µM/g
- IC50 (α3β4-nAChR): 3 µM
- Increase in expression of serine racemase ([3]; 1000nM): ~ 2 fold
- Concentrations with significant increase in m-SR expression (ANOVA) ([3]; 36 h): 600 nM and 1000 nM
- Concentration of maximum increase in m-SR protein expression ([3]; 36 h): 600 nM
- IC50 (α7-nAChR [7]): 20 µM

SMILES: NC1(c2ccccc2Cl)CCCCC1=O (racemic) [(R,S)-norketamine]
- Levels of phosphorylated mTOR, 4E-BP1, p70S6K, ERK1/2 and Akt and of m-SR protein (mTOR pathway): significant increases
- Concentration above which the increase lost significance (mTOR pathway; 60 min): greater than 250 nM
- Anesthetic activity (anesthesia; rat): produce anesthesia
- Rat brain tissue conc. of (2S,6S;2R,6R)-HNK [6, 14]: 16 ± 3 µM/g
- Rat brain tissue conc. of (R,S)-norKet [6, 14]: 88 ± 8 µM/g
- Rat brain tissue conc. of (2S,6S;2R,6R)-HNK [6, 15]: 16 ± 3 µM/g
- Rat brain tissue conc. of (R,S)-norKet [6, 15]: 51 ± 4 µM/g
- Rat brain tissue conc. of (2S,6S;2R,6R)-HNK [6, 16]: 8.9 ± 0.7 µM/g
- Rat brain tissue conc. of (R,S)-norKet [6, 16]: 20 ± 7 µM/g
- Rat brain tissue conc. of (2S,6S;2R,6R)-HNK [6, 17]: 2.1 ± 0.4 µM/g
- Rat brain tissue conc. of (R,S)-norKet [6, 17]: 1.0 ± 0.1 µM/g
- Relative pAkt levels [1]: not impacted
- Levels of phosphorylated forms of mTOR, pp70S6K and p4E-BP1 ([1]; 20- and 60-min samples): significant increases
- Increase in pmTOR levels ([1]; 20-min sample): 15 fold
- Increase in pmTOR levels ([1]; 60-min sample): 25 fold
- Increase in pERK level ([1]; significant): ~ 6 fold
- Increase in phosphorylation of mTOR and its downstream targets [1]: > 25 fold
- IC50 (α3β4-nAChR): 9 µM
- Increase in expression of serine racemase ([3]; 10nM): ~ 2 fold
- Concentration of maximum increase in m-SR protein expression ([3]; 36 h): 10 nM

SMILES: N[C@@]1(c2ccccc2Cl)CCC[C@@H](O)C1=O [(2R,6R)-hydroxynorketamine]
- IC50 (α7-nAChR [2]): < 100 nM
- Activity at the NMDAR (NMDAR): not active
- Activity at the α3β4-nAChR (α3β4-nAChR): not active

SMILES: N[C@@]1(c2ccccc2Cl)CCC[C@@H](O)C1=O [(2S,6S;2R,6R)-hydroxynorketamine]
- Anesthetic activity (anesthesia; rat): no anesthetic effect
- Anesthetic activity (anesthesia; rat; ref 9;2R,6R)-Hydroxynorketamine): lacks anesthetic activity

SMILES: CN1CCC[C@H]1c1cccnc1 [(S)-nicotine]
- Effect on the phosphorylation of pmTOR, p4E-BP1, pp70S6K, pERK1/2 and pAkt (mTOR pathway; (S)-nicotine alone, 2 μM, 1 h): no effect
- Effect on expression of m-SR [8]: no effect

SMILES: CCN1C[C@]2(COC(=O)c3ccccc3N3C(=O)C[C@H](C)C3=O)CC[C@H](OC)[C@@]34[C@@H]5C[C@H]6[C@H](OC)[C@@H]5[C@](O)(C[C@@H]6OC)[C@@](O)([C@@H](OC)[C@H]23)[C@@H]14 [methyllycaconitine]
- Levels of phosphorylated mTOR, 4E-BP1, p70S6K, ERK1/2 and Akt and of m-SR protein (mTOR pathway): significant increases
- Effect on expression of m-SR [8]: significantly increases
